Values of other authors in patent US9717692B2, “Effervescent formulations comprising dexketoprofen” (priority 2011, dated 2017).

Conditions: Sunshine et al., WO89/046558

C[C@H](C(=O)O)c1cccc(C(=O)c2ccccc2)c1 [Dexketoprofen, (+)-(S)-2-(3-Benzoylphenyl) propionic acid]
effect compared with racemic ketoprofen of the same amount: quicker and stronger effect
